Test results taken from ChEMBL document CHEMBL4308841, “Synthesis, in vitro antiproliferative activity, and kinase inhibitory effects of pyrazole-containing diarylureas and diarylamides” (Eur J Med Chem, 2018).

Columns and labels:
K562 [1] = test: Growth inhibition of human K562 cells incubated for 48 hrs by sulforhodamine B assay; format: functional, cell-based; details: K562, 48 h
MOLT-4 = test: Growth inhibition of human MOLT4 cells incubated for 48 hrs by sulforhodamine B assay; format: functional, cell-based; details: MOLT-4, 48 h
SF-295 [2] = test: Growth inhibition of human SF295 cells incubated for 48 hrs by sulforhodamine B assay; format: functional, cell-based; details: SF-295, 48 h
MDA-MB-435 = test: Growth inhibition of human MDA-MB-435 cells incubated for 48 hrs by sulforhodamine B assay; format: functional, cell-based; details: MDA-MB-435, 48 h
786-0 = test: Growth inhibition of human 786-0 cells incubated for 48 hrs by sulforhodamine B assay; format: functional, cell-based; details: 786-0, 48 h
K562 [3] = test: Growth inhibition of human K562 cells assessed as cell growth at 0.01 uM incubated for 48 hrs by sulforhodamine B assay relative to control; format: functional; details: K562, 48 h, read-out: Activity
SF-539 = test: Growth inhibition of human SF539 cells assessed as cell growth at 0.01 uM incubated for 48 hrs by sulforhodamine B assay relative to control; format: functional; details: SF-539, 48 h, read-out: Activity
SNB-19 = test: Growth inhibition of human SNB19 cells assessed as cell growth at 0.01 uM incubated for 48 hrs by sulforhodamine B assay relative to control; format: functional; details: SNB-19, 48 h, read-out: Activity
U-251 = test: Growth inhibition of human U251 cells assessed as cell growth at 0.01 uM incubated for 48 hrs by sulforhodamine B assay relative to control; format: functional; details: U-251, 48 h, read-out: Activity
SK-MEL-28 = test: Growth inhibition of human SK-MEL-28 cells assessed as cell growth at 0.01 uM incubated for 48 hrs by sulforhodamine B assay relative to control; format: functional; details: SK-MEL-28, 48 h, read-out: Activity
MCF7 = test: Growth inhibition of human MCF7 cells assessed as cell growth at 0.01 uM incubated for 48 hrs by sulforhodamine B assay relative to control; format: functional; details: MCF7, 48 h, read-out: Activity
MDA-MB-231 = test: Growth inhibition of human MDA-MB-231 cells assessed as cell growth at 0.01 uM incubated for 48 hrs by sulforhodamine B assay relative to control; format: functional; details: MDA-MB-231, 48 h, read-out: Activity
BT-549 = test: Growth inhibition of human BT549 cells assessed as cell growth at 0.01 uM incubated for 48 hrs by sulforhodamine B assay relative to control; format: functional; details: BT-549, 48 h, read-out: Activity
LOX IMVI = test: Growth inhibition of human LOXIMVI cells assessed as cell growth at 0.1 uM incubated for 48 hrs by sulforhodamine B assay relative to control; format: functional; details: read-out: Activity
Malme-3M = test: Growth inhibition of human MALME-3M cells assessed as cell growth at 0.1 uM incubated for 48 hrs by sulforhodamine B assay relative to control; format: functional; details: read-out: Activity
OVCAR-4 = test: Growth inhibition of human OVCAR4 cells assessed as cell growth at 0.1 uM incubated for 48 hrs by sulforhodamine B assay relative to control; format: functional; details: OVCAR-4, 48 h, read-out: Activity
UO-31 = test: Growth inhibition of human UO31 cells assessed as cell growth at 0.1 uM incubated for 48 hrs by sulforhodamine B assay relative to control; format: functional; details: UO-31, 48 h, read-out: Activity
RPMI-8226 = test: Growth inhibition of human RPMI8226 cells assessed as cell growth at 1 uM incubated for 48 hrs by sulforhodamine B assay relative to control; format: functional; details: RPMI-8226, 48 h, read-out: Activity
NCI-H226 = test: Growth inhibition of human NCI-H226 cells assessed as cell growth at 1 uM incubated for 48 hrs by sulforhodamine B assay relative to control; format: functional; details: NCI-H226, 48 h, read-out: Activity
NCI-H522 = test: Growth inhibition of human NCI-H522 cells assessed as cell growth at 1 uM incubated for 48 hrs by sulforhodamine B assay relative to control; format: functional; details: NCI-H522, 48 h, read-out: Activity
SF-268 = test: Growth inhibition of human SF268 cells assessed as cell growth at 1 uM incubated for 48 hrs by sulforhodamine B assay relative to control; format: functional; details: SF-268, 48 h, read-out: Activity
SF-295 [4] = test: Growth inhibition of human SF295 cells assessed as cell growth at 1 uM incubated for 48 hrs by sulforhodamine B assay relative to control; format: functional; details: SF-295, 48 h, read-out: Activity
NCI/ADR-RES [5] = test: Growth inhibition of human NCI/ADR-RES cells assessed as cell growth at 1 uM incubated for 48 hrs by sulforhodamine B assay relative to control; format: functional; details: read-out: Activity
SK-OV-3 [6] = test: Growth inhibition of human SKOV3 cells assessed as cell growth at 1 uM incubated for 48 hrs by sulforhodamine B assay relative to control; format: functional; details: SK-OV-3, 48 h, read-out: Activity
T47D = test: Growth inhibition of human T47D cells assessed as cell growth at 1 uM incubated for 48 hrs by sulforhodamine B assay relative to control; format: functional; details: read-out: Activity
HCT-15 = test: Growth inhibition of human HCT15 cells assessed as cell growth at 100 uM incubated for 48 hrs by sulforhodamine B assay relative to control; format: functional; details: HCT-15, 48 h, read-out: Activity
SF-295 [7] = test: Growth inhibition of human SF295 cells assessed as cell growth at 100 uM incubated for 48 hrs by sulforhodamine B assay relative to control; format: functional; details: SF-295, 48 h, read-out: Activity
SNB-75 = test: Growth inhibition of human SNB75 cells assessed as cell growth at 100 uM incubated for 48 hrs by sulforhodamine B assay relative to control; format: functional; details: SNB-75, 48 h, read-out: Activity
NCI/ADR-RES [8] = test: Growth inhibition of human NCI/ADR-RES cells assessed as cell growth at 100 uM incubated for 48 hrs by sulforhodamine B assay relative to control; format: functional; details: read-out: Activity
SK-OV-3 [9] = test: Growth inhibition of human SKOV3 cells assessed as cell growth at 100 uM incubated for 48 hrs by sulforhodamine B assay relative to control; format: functional; details: SK-OV-3, 48 h, read-out: Activity
[10] = read-out: LC50 (the source's name)
[11] = read-out: pLC50 (the source's name) (converted)

COc1cc(Cl)cc(-c2nn(-c3cccc(NC(=O)Nc4ccc(Cl)c(C(F)(F)F)c4)c3)cc2-c2ccncc2)c1
GI50 (K562 [1]; read-out: GI50): 0.537 µM | LC50 (K562 [1]; read-out: LC50): 9.55 µM | TGI (K562 [1]; read-out: TGI): 10.1 µM | GI50 (K562 [1]; read-out: pGI50 (converted)): 5.37 µM | LC50 (K562 [1]; read-out: pLC50 (converted)): 95.5 µM | TGI (K562 [1]; read-out: pTGI (converted)): 10 µM | GI50 (MOLT-4; read-out: GI50): 1.23 µM | CC50 (MOLT-4; [10]): > 100 µM | TGI (MOLT-4; read-out: TGI): 45.5 µM | GI50 (MOLT-4; read-out: pGI50 (converted)): 1.23 µM | CC50 (MOLT-4; [11]): > 100 µM | TGI (MOLT-4; read-out: pTGI (converted)): 4.68 µM | GI50 (SF-295 [2]; read-out: GI50): 0.455 µM | CC50 (SF-295 [2]; [10]): 5.15 µM | TGI (SF-295 [2]; read-out: TGI): 20 µM | GI50 (SF-295 [2]; read-out: pGI50 (converted)): 0.468 µM | CC50 (SF-295 [2]; [11]): 6.17 µM | TGI (SF-295 [2]; read-out: pTGI (converted)): 2 µM | GI50 (MDA-MB-435; read-out: GI50): 1.75 µM | LC50 (MDA-MB-435; read-out: LC50): > 100 µM | TGI (MDA-MB-435; read-out: TGI): 43.5 µM | GI50 (MDA-MB-435; read-out: pGI50 (converted)): 1.74 µM | LC50 (MDA-MB-435; read-out: pLC50 (converted)): > 100 µM | TGI (MDA-MB-435; read-out: pTGI (converted)): 3.47 µM | GI50 (786-0; read-out: GI50): 1.59 µM | CC50 (786-0; [10]): 15.2 µM | TGI (786-0; read-out: TGI): 42.7 µM | GI50 (786-0; read-out: pGI50 (converted)): 1.58 µM | CC50 (786-0; [11]): 15.1 µM | TGI (786-0; read-out: pTGI (converted)): 9.77 µM | growth at 0.01 µM (K562 [3]): 94% | growth at 0.01 µM (SF-539): 96% | growth at 0.01 µM (SNB-19): 92% | growth at 0.01 µM (U-251): 98% | growth at 0.01 µM (SK-MEL-28): 98% | growth at 0.01 µM (MCF7): 90% | growth at 0.01 µM (MDA-MB-231): 93% | growth at 0.01 µM (BT-549): 92% | growth at 0.1 µM (LOX IMVI): 97% | growth at 0.1 µM (Malme-3M): 79% | growth at 0.1 µM (OVCAR-4): 97% | growth at 0.1 µM (UO-31): 55% | growth at 1 µM (RPMI-8226): 17% | growth at 1 µM (NCI-H226): 79% | growth at 1 µM (NCI-H522): 34% | growth at 1 µM (SF-268): 83% | growth at 1 µM (SF-295 [4]): 31% | growth at 1 µM (NCI/ADR-RES [5]): 66% | growth at 1 µM (SK-OV-3 [6]): 100% | growth at 1 µM (T47D): 58% | growth at 100 µM (HCT-15): -90% | growth at 100 µM (SF-295 [7]): -82% | growth at 100 µM (SNB-75): -38% | growth at 100 µM (NCI/ADR-RES [8]): -15% | growth at 100 µM (SK-OV-3 [9]): -39%
